Measured values from US20170162898A1, “Quaternary Ammonium Halides With Ether Functional Groups For Use As Battery Electrolytes” (Albemarle Corporation, priority 2014, published 2017).
Several values for one entry are separate records, joined by “and”; a condition that tells them apart may be missing. Identical values can stand only once.

Experiments:
[1] = Measurement of free bromine in aqueous phase; format: physicochemical; conditions: stirred 24 hrs, top aqueous phase, wt %
Excerpt: The forward operation of a bromine-containing battery generally involves the conversion of elemental bromine to ionic bromine. The quat/Br2 complex results from an equilibrium reaction in which the Br2 is released from the complex as the concentration of free Br2 in the aqueous electrolyte drops during battery operation. In its fully charged state, the electrolyte solution inevitably contains some degree of uncomplexed bromine. A measure of a quat's ability to complex elemental bromine is the amount of elemental bromine left in solution when the complexation reaction proceeds to equilibrium. Such bromine is referred to as “free bromine.” Measurement of free bromine in aqueous phase is set forth in Example 1.
Two slightly different methods were used to prepare the electrolyte compositions, A) one containing 0.7M quat and B) the other containing 0.8M quat. In composition A, 2.0 moles of bromine was added to an aqueous solution containing 0.5 moles of zinc bromide and 0.7 moles of the quat. The two-phase mixture was stirred for 24 hrs. and then the phases were allowed to settle. The top aqueous phase was sampled for free bromine measurement. In composition B, 1.44 moles of bromine was added to an aqueous solution containing 0.5 moles of zinc bromide, 0.4 moles of zinc chloride and 0.8 moles of the quat. The top aqueous phase obtained after stirring for 24 hrs. was used for free bromine measurement.
A 250-ml Erlenmeyer flask was charged with 50 ml of deionized water and weighed (A). A sample of the clear aqueous phase was passed through glass wool to remove any suspended organic phase and then added to the Erlenmeyer flask. The flask was weighed again (B) and the difference in weight (B-A) was noted as the weight of the sample. About 20 ml of 20% potassium iodide solution followed by about 5 ml of starch solution was added to the flask. The resulting dark mixture was titrated against 0.02N sodium thiosulfate solution. The end-point was the disappearance of purple color. Free bromine (wt %) was calculated in the following manner:
Wt % free Br2=Volume (ml) of sodium Thiosulfate×Normality of Sodium thisosulfate/Sample Weight.

[2] = Cloud point determination (solubility in ZnBr2 solution); conditions: for Solubility in ZnBr2 Cloud Point: 0.7 M quat in 2.5M Zinc Bromide water solution
Protocol: By “cloud point” is meant the cloud point of an aqueous solution containing 0.7 M complexing agent and 2.5 M zinc bromide.
A 0.7M quaternary ammonium bromide in 2.5M Zinc Bromide water solution was prepared. • 2. The solution was transferred to a jacketed flask with a stirring bar and temperature monitor. • 3. The solution was warmed to 15° C. above the expected cloud point. If necessary, any moisture or impurities were removed by filtration. • 4. The solution was stirred, with speed adjustment to about 250 rpm, while avoiding the formation of bubbles. • 5. The solution was cooled gradually (cooling rate of about 1° C./5 min). • 6. The sample was inspected carefully for signs of cloudiness, and the temperature at which cloudiness was observed was recorded to the nearest 0.1° C.

[3] = Free bromine in electrolyte with chloroquat or bromoquat (Example 8); format: physicochemical; conditions: 0.84 M zinc bromide, 0.8 M quat, 1.44 M bromine; stirred for 24 hrs at 35° C.
Protocol: Chloride ions are added to the electrolyte in amounts sufficient to reduce the amount of free bromine present and increase the electrolyte conductivity during charging of the cell. Chloride ions in the electrolyte may come from zinc chloride or quaternary ammonium chloride complexing agent.
Experiment 1 of Example 8: An aqueous electrolyte system was prepared having 0.84 M zinc bromide, 0.8 NI chloroquat (N-methyl, N-butyl pyrrolidinium chloride) and 1.44 M bromine. After the sample was stirred for 24 hrs at 35° C., the amount of free bromine present in the electrolyte was 0.26%.
Experiment 2 of Example 8: An aqueous electrolyte system was prepared having 0.84 M zinc bromide, 0.8 M bromoquat (N-methyl, N-butyl pyrrolidinium bromide) and 1.44 NI bromine. After the sample was stirred for 24 hrs at 35° C., the amount of free bromine present in the electrolyte was 0.25%.

[4] = 0.7 M quat (composition A: 0.5 moles zinc bromide, 2.0 moles bromine)
[5] = 0.8 M quat (composition B: 0.5 moles zinc bromide, 0.4 moles zinc chloride, 1.44 moles bromine)

| Free Br2 [1, 4] | Solubility in ZnBr2 Cloud Point [2] | SMILES | further results |
| --- | --- | --- | --- |
| 0.7 M 0.28% | 0.7 M, 29 C. | CCCC[N+](C)(C)CCOC.[Br-] [Compound 1, Dimethylbutylether Quat Bromide] |  |
| 0.658% and 0.7 M 0.658% |  | CC[N+](CC)(CC)CCOC.[Br-] [Compound 2, (2-methoxyethyl)-triethylammonium bromide] | Free Br2 [1, 5]: 0.467% and 0.8 M 0.467% |
| 0.7 M 0.70% |  | CC[N+](C)(CC)CCOC.[Br-] [Compound 4, diethylmethyl-(2-methoxyethyl)ammonium bromide] |  |
| 0.089% and 0.7 M 0.089% | 0.7 M, 41.2 C. | CCC[N+](CC)(CC)CC.[Br-] [Compound 5, triethylpropylammonium bromide] |  |
|  | 0.7 M, 11.9 C. | CC[N+]1(CC)CCCCC1.[Br-] [Compound 9, Diethyl Piperidinium Bromide] | Free Br2 [1, 5]: 0.26% and 0.8 M 0.26% |
|  | 0.7 M, 45.8 C. | CCC[N+]1(CC)CCCCC1 [Compound 10, EthyPropyl Piperidinium Bromide] | Free Br2 [1, 5]: 0.026% and 0.8 M 0.026% |
|  |  | CCC[N+](C)(C)CC.[Br-] [DMEP, dimethylethylpropyl ammonium bromide, reference compound] | cloud point ([2]; solution 0.7M in DMEP and 2.5M in ZnBr2): about 23.2 °C |
|  |  | CCCC[N+]1(C)CCCC1.[Br-] [bromoquat, N-methyl, N-butyl pyrrolidinium bromide] | amount of free bromine present in the electrolyte [3]: 0.25% |
|  |  | CCCC[N+]1(C)CCCC1.[Cl-] [chloroquat, N-methyl, N-butyl pyrrolidinium chloride] | amount of free bromine present in the electrolyte [3]: 0.26% |

| SMILES | Free Br2 [1, 4] | Solubility in ZnBr2 Cloud Point [2] | further results |
| --- | --- | --- | --- |
| CC[N+](C)(C)CCOCC[N+](C)(C)CC.[Br-].[Br-] [Compound 14, Dimethylethyl Gemini Quat Bromide with Diethylether Linkage] | 0.71% and 0.7 M 0.71% | 0.7 M, 48.2 C. |  |
| CC[N+](C)(C)CCCC[N+](C)(C)CC.[Br-].[Br-] [Compound 15, Dimethylethyl Gemini Quat Bromide with Butyl Linkage] | 0.59% and 0.7 M 0.59% | 0.7 M, 89.2 C. |  |
